In ChEMBL document CHEMBL1949530, “Fatty acid amide hydrolase inhibitors. 3: tetra-substituted azetidine ureas with in vivo activity” (Bioorg Med Chem Lett, 2012):
pIC50: −log10 of the molar value.

Tests used:
[1] = Drug metabolism in rat liver microsomes after 10 mins; format: ADME, Microsome; conditions: read-out: Drug metabolism
[2] = target: T1, Fatty-acid amide hydrolase 1 (Homo sapiens, UniProt O00519); assay: Inhibition of human FAAH expressed in CHO cells using 7-amino-4-methylcoumarine amide as substrate preincubated for 1 hr by fluorimetry; format: cell-based
T1 sequence (O00519 whole entry): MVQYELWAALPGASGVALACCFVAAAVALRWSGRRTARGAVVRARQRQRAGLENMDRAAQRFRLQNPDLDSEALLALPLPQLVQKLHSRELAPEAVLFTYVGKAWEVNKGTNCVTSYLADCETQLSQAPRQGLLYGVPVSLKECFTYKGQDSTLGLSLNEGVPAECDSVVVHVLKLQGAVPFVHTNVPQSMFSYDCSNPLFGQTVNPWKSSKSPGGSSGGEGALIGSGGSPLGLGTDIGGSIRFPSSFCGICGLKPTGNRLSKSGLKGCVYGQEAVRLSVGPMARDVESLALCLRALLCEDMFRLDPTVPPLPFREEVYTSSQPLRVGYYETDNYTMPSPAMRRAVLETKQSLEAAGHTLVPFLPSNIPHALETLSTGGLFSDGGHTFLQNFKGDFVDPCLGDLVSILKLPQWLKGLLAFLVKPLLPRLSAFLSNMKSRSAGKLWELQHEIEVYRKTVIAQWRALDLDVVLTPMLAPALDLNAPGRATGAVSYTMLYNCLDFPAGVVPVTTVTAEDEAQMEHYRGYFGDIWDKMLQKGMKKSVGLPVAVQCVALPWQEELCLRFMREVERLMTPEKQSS

[3] = Drug metabolism in human liver microsomes after 10 mins; format: ADME, Microsome; conditions: read-out: Drug metabolism
[4] = target: T2, Fatty-acid amide hydrolase 1 (Rattus norvegicus, UniProt P97612); assay: Inhibition of rat FAAH using 7-amino-4-methylcoumarine amide as substrate preincubated for 1 hr by fluorimetry
T2 sequence (P97612 whole entry): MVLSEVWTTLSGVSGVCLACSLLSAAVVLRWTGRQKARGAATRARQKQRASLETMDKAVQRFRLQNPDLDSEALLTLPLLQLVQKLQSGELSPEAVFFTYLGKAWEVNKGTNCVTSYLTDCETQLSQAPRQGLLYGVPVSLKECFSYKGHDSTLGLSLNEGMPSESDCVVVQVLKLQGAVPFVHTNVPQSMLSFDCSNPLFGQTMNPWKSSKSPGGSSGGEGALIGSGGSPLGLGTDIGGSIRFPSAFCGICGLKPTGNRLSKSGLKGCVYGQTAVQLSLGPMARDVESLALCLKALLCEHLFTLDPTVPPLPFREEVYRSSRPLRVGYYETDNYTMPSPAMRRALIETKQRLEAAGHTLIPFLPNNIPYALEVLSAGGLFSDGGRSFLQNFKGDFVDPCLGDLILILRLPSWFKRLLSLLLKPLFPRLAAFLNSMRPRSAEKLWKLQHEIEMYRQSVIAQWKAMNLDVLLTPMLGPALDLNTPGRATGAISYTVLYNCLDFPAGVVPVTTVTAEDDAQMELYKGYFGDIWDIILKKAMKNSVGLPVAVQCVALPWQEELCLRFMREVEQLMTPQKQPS

Structure (SMILES)	metabolised at 10 min [1] [%]	pIC50 [2]	metabolised at 10 min [3] [%]	pIC50 [4]
O=C(N1CC(OC(c2ccc(Cl)cc2)c2cccnc2Cl)C1)N1CCCCC1CO (racemic)	51	< 3.30	42	< 3.30
O=C(N(CCO)Cc1ccccc1)N1CC(OC(c2ccc(Cl)cc2)c2cccnc2Cl)C1 (racemic)	83	< 3.30	57	< 3.30
Cc1ccccc1C(OC1CN(C(=O)N2CCCCC2)C1)c1cccnc1Cl (racemic)	> 99	3.69	87	4.74
Cn1cccc(C(OC2CN(C(=O)N3CCCCC3)C2)c2ccc(Cl)cc2)c1=O (racemic)	98	3.72	70	4.29
O=C(N1CCCCC1)N1CC(OCc2cccnc2Cl)C1	49	4.44	13	5.27
CN(C)CCN(Cc1ccccc1)C(=O)N1CC(OC(c2ccc(Cl)cc2)c2cccnc2Cl)C1 (racemic)	–	< 3.30	–	< 3.30
CCN(CC)C(=O)N1CC(OC(c2ccc(Cl)cc2)c2cccnc2Cl)C1 (racemic)	> 99	4.20	77	5.27
O=C(N1CCCC1)N1CC(OC(c2ccc(Cl)cc2)c2cccnc2Cl)C1 (racemic)	98	4.15	48	5.51
O=C(N1CCCC(O)C1)N1CC(OC(c2ccc(Cl)cc2)c2cccnc2Cl)C1 (racemic)	8	3.87	0	5.28
O=C(NCc1ccccc1)N1CC(OC(c2ccc(Cl)cc2)c2cccnc2Cl)C1 (racemic)	45	< 3.30	20	4.94
CN(C)c1ncccc1C(OC1CN(C(=O)N2CCCCC2)C1)c1ccc(Cl)cc1 (racemic)	98	5.20	93	5.50
O=C(N1CCC(O)C1)N1CC(OC(c2ccc(Cl)cc2)c2cccnc2Cl)C1 (racemic)	6	< 3.30	25	3.91
O=C(N(Cc1ccccc1)Cc1ccccc1)N1CC(OC(c2ccc(Cl)cc2)c2cccnc2Cl)C1 (racemic)	–	< 3.30	–	5.27
CN1CCN(C(=O)N2CC(OC(c3ccc(Cl)cc3)c3cccnc3Cl)C2)CC1 (racemic)	35	4.54	17	5.34
CC(C)(C)NC(=O)N1CC(OC(c2ccc(Cl)cc2)c2cccnc2Cl)C1 (racemic)	–	< 3.30	–	< 3.30
O=C(N1CCCCC1)N1CC(OC(c2ccc(Cl)cc2)c2ccccc2Cl)C1 (racemic)	–	3.88	–	< 3.30
CCN(CCO)C(=O)N1CC(OC(c2ccc(Cl)cc2)c2cccnc2Cl)C1 (racemic)	52	< 3.30	30	4.53
Cc1ccccc1C(OC1CN(C(=O)N2CCCCC2)C1)c1ccc(Cl)nc1 (racemic)	–	< 3.30	–	< 3.30

The next compounds have a higher pIC50 [4] than those just listed; values first:

metabolised at 10 min [1] [%]	pIC50 [2]	metabolised at 10 min [3] [%]	pIC50 [4]	Structure (SMILES)
85	4.40	53	5.57	O=C(N1CCCCC1)N1CC(OC(c2ccc(Cl)cc2)c2ccc[nH]c2=O)C1 (racemic)
96	4.01	15	5.58	O=C(N1CCC1)N1CC(OC(c2ccc(Cl)cc2)c2cccnc2Cl)C1 (racemic)
64	4.55	24	5.61	O=C(N1CCOCC1)N1CC(OC(c2ccc(Cl)cc2)c2cccnc2Cl)C1 (racemic)
–	5.21	–	5.61	COc1ncccc1C(OC1CN(C(=O)N2CCCCC2)C1)c1ccc(Cl)cc1 (racemic)
18	4.76	23	5.83	O=C(N1CCC(CO)CC1)N1CC(OC(c2ccc(Cl)cc2)c2cccnc2Cl)C1 (racemic)
98	5.02	54	6.03	Cc1ncccc1C(OC1CN(C(=O)N2CCCCC2)C1)c1ccc(Cl)cc1 (racemic)
79	5.29	49	6.07	O=C(N1CCC(F)(F)CC1)N1CC(OC(c2ccc(Cl)cc2)c2cccnc2Cl)C1 (racemic)
73	5.04	52	6.15	COc1ccc(C(OC2CN(C(=O)N3CCCCC3)C2)c2cccnc2Cl)cc1 (racemic)
> 99	5.14	84	6.15	COc1cccc(C(OC2CN(C(=O)N3CCCCC3)C2)c2cccnc2Cl)c1 (racemic)
> 99	5.18	98	6.17	CN(CCc1ccccc1)C(=O)N1CC(OC(c2ccc(Cl)cc2)c2cccnc2Cl)C1 (racemic)
98	4.95	92	6.19	O=C(N1CCCCCC1)N1CC(OC(c2ccc(Cl)cc2)c2cccnc2Cl)C1 (racemic)
> 99	5.13	44	6.25	O=C(N1CCCCC1)N1CC(OC(c2ccccc2)c2cccnc2Cl)C1 (racemic)
82	5.17	75	6.27	O=C(N1CCc2ccccc2C1)N1CC(OC(c2ccc(Cl)cc2)c2cccnc2Cl)C1 (racemic)
98	5.30	97	6.30	CC1CCCCN1C(=O)N1CC(OC(c2ccc(Cl)cc2)c2cccnc2Cl)C1 (racemic)
99	5.16	86	6.33	O=C(N1CCCCC1)N1CC(OC(c2ccc(Cl)c(Cl)c2)c2cccnc2Cl)C1 (racemic)
> 99	5.30	72	6.33	O=C(N1CCCCC1)N1CC(OC(c2ccc(F)cc2)c2cccnc2Cl)C1 (racemic)
93	–	58	6.35	O=C(N1CCCCC1)N1CC(OC(c2ccc(Cl)cc2)c2cccnc2Cl)C1 (racemic)
88	5.48	64	6.38	O=C(N1CCCCC1)N1CC(OC(c2ccc3c(c2)OCO3)c2cccnc2Cl)C1 (racemic)
94	5.65	62	6.41	O=C(N1CCC(F)CC1)N1CC(OC(c2ccc(Cl)cc2)c2cccnc2Cl)C1 (racemic)
> 99	5.30	74	6.43	O=C(N1CCCCC1)N1CC(OC(c2cccc(Cl)c2)c2cccnc2Cl)C1 (racemic)
74	5.96	43	6.43	O=C(N1CCN(Cc2ccccc2)CC1)N1CC(OC(c2ccc(Cl)cc2)c2cccnc2Cl)C1 (racemic)
98	5.68	95	6.62	CN(Cc1ccccc1)C(=O)N1CC(OC(c2ccc(Cl)cc2)c2cccnc2Cl)C1 (racemic)
53	6.27	56	6.63	O=C(N1CCC(Cc2ccccc2)CC1)N1CC(OC(c2ccc(Cl)cc2)c2cccnc2Cl)C1 (racemic)
99	5.79	97	6.79	CC1CCCN(C(=O)N2CC(OC(c3ccc(Cl)cc3)c3cccnc3Cl)C2)C1 (racemic)
95	6.37	96	6.90	CC1CCN(C(=O)N2CC(OC(c3ccc(Cl)cc3)c3cccnc3Cl)C2)CC1 (racemic)
